Measured values: the supplement of paper PMC8671470

Experiments:
Experiment in all cases: area under dose-response curve (viability, 1 nM-10 uM) (fraction (0-1)); higher = more sensitive
Settings in all cases: 72 h
[1] = system: myeloid leukemia patient primary cells Pat.10
Method: (§1)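 AUC (0–1, higher = more sensitive) of the 5-point dose–response (1 nM–10 µM, 72 h, CellTiter-Glo) in primary AML/CML patient mononuclear cells. 0.030103 is the floor for inactive compounds.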

[2] = system: myeloid leukemia patient primary cells Pat.11
Method: as §1

[3] = system: myeloid leukemia patient primary cells Pat.12
Method: as §1

[4] = system: myeloid leukemia patient primary cells Pat.13
Method: as §1

[5] = system: myeloid leukemia patient primary cells Pat.14
Method: as §1

[6] = system: myeloid leukemia patient primary cells Pat.15
Method: as §1

[7] = system: myeloid leukemia patient primary cells Pat.1
Method: as §1

[8] = system: myeloid leukemia patient primary cells Pat.2
Method: as §1

[9] = system: myeloid leukemia patient primary cells Pat.3
Method: as §1

[10] = system: myeloid leukemia patient primary cells Pat.4
Method: as §1

[11] = system: myeloid leukemia patient primary cells Pat.5
Method: as §1

[12] = system: myeloid leukemia patient primary cells Pat.6
Method: as §1

[13] = system: myeloid leukemia patient primary cells Pat.7
Method: as §1

[14] = system: myeloid leukemia patient primary cells Pat.8
Method: as §1

[15] = system: myeloid leukemia patient primary cells Pat.9
Method: as §1

Structure (SMILES) | area under dose-response curve [1] | area under dose-response curve [2] | area under dose-response curve [3] | area under dose-response curve [4] | area under dose-response curve [5] | area under dose-response curve [6] | area under dose-response curve [7] | area under dose-response curve [8] | area under dose-response curve [9] | area under dose-response curve [10] | area under dose-response curve [11] | area under dose-response curve [12] | area under dose-response curve [13] | area under dose-response curve [14] | area under dose-response curve [15]
C[C@H](NC(=O)c1sccc1OCc1ccc(Cl)cc1)c1ccccc1 | 0.13 | < 0.0301 | < 0.0301 | 0.0406 | 0.121 | < 0.0301 | 0.0329 | 0.0349 | 0.124 | 0.0955 | 0.338 | 0.0893 | 0.253 | < 0.0301 | 0.195
COc1cc(/C=C/C(=O)N2CCC=CC2=O)cc(OC)c1OC [Piperlongumine] | < 0.0301 | 0.121 | 0.162 | 0.149 | 0.244 | 0.191 | 0.143 | 0.125 | 0.219 | 0.21 | 0.585 | 0.116 | 0.0802 | 0.144 | 0.505
O=C(C1CC1)N1CC[C@@H](C=C2NNC(=O)N2c2ccc(-c3ccc4occc4c3)cc2)C1 | 0.082 | < 0.0301 | < 0.0301 | < 0.0301 | < 0.0301 | < 0.0301 | < 0.0301 | < 0.0301 | < 0.0301 | < 0.0301 | 0.292 | < 0.0301 | < 0.0301 | < 0.0301 | 0.235
C=C(C=NNC(=N)N)NNC(=N)N [Mitoguazone] | 0.574 | < 0.0301 | < 0.0301 | < 0.0301 | 0.604 | 0.161 | < 0.0301 | < 0.0301 | 0.412 | 0.0342 | 0.715 | 0.484 | 0.528 | < 0.0301 | 0.6
N#CC(C#N)=NNc1ccc(OC(F)(F)F)cc1 [FCCP] | 0.466 | 0.158 | 0.0898 | 0.211 | 0.316 | 0.159 | 0.214 | 0.0623 | 0.361 | 0.229 | 0.825 | 0.175 | 0.366 | 0.116 | 0.361
C=C(C)[C@H]1Cc2c(ccc3c2O[C@@H]2COc4cc(OC)c(OC)cc4[C@@H]2C3=O)O1 [Rotenone] | 0.411 | < 0.0301 | 0.0808 | 0.391 | 0.41 | 0.465 | 0.112 |  | 0.57 | 0.187 | 0.99 | 0.399 | 0.329 | 0.322 | 0.55
O=C(O)C1=CC(=C(c2ccc(O)c(C(=O)O)c2)c2ccc(O)c(C(=O)O)c2)C=CC1=O [Aurintricarboxylic acid] | < 0.0301 | < 0.0301 | < 0.0301 | < 0.0301 | < 0.0301 | < 0.0301 | < 0.0301 | < 0.0301 | 0.0466 | < 0.0301 | < 0.0301 | < 0.0301 | < 0.0301 | < 0.0301 | < 0.0301
